Calls of active or inactive are those of the source. How the calls were made is not given here.

The assay concerns the target glucose-6-phosphate dehydrogenase-6-phosphogluconolactonase (Plasmodium falciparum 3D7). In words: PfG6PD enzyme inhibitors, direct NADPH readout, dose response, orthogonal assay, biochemical, end-point NADPH detection (AID 540252). To be noted: purified PfG6PD enzyme.
For the molecule `CCN(CC)c1ccc(NC(=O)c2ccccc2Br)cc1S(=O)(=O)Nc1ccccc1OC`, the IC50 (as a rule, the concentration at which inhibition is half-maximal) was > 80 µM (inactive).
Turning to `C=CCSc1nnc(NC(=O)c2ccc(Cl)nc2)s1`, the IC50 is > 80 µM (inactive).
Then `Clc1ccc(N=c2ssnc2Cl)nc1`, with > 80 µM (inactive); and `O=C(O)CSc1cc(NS(=O)(=O)c2cccc([N+](=O)[O-])c2)c2ccccc2c1O`, with > 80 µM (inactive).
Take `O=C(CNC(=O)c1ccco1)OCC(=O)c1ccc([N+](=O)[O-])cc1`: the IC50 was 48.4 µM.
Then `C=CCSc1nc2sc3c(c2c(=O)n1CC)CCc1ccccc1-3`, with > 80 µM (inactive).
Then `Fc1cccc(Cl)c1CNc1ccc(N2CCCC2)cc1`, with > 80 µM (inactive); and `COc1cc(/C=C/C(=O)c2ccc([N+](=O)[O-])o2)ccc1O`, with > 80 µM (inactive).
Consider `O=S(=O)(Nc1cccc2cccnc12)c1ccccc1`, for which the IC50 was > 80 µM (inactive).
The figure for `Cc1cc(NC(=O)c2oc3ccccc3c2C)ccc1-n1cnnn1` is > 80 µM (inactive); for `COc1ccc(C(=O)Nc2cc(Cl)ccc2C(=O)O)cc1` it is > 80 µM (inactive); for `COc1cc(NC(C)CCc2ccccc2)cc(OC)c1OC` (stereo not drawn) it is > 80 µM (inactive).
Then `COc1ccccc1N1CSC2=C(C#N)C(c3ccc(SC)cc3)CC(=O)N2C1` (stereo not drawn), with > 80 µM (inactive); and `O=[N+]([O-])c1ccc(-[n+]2ccc3ccccc3c2)c([N+](=O)[O-])c1`, with > 80 µM (inactive).
As to `O=[N+]([O-])c1ccc(N/N=C/c2ccc(O)c(O)c2O)c(S(=O)(=O)N2CCOCC2)c1`, the IC50 is 47.5 µM.
Consider `COc1cccc(-c2c(C(=O)N/N=C/c3ccc(C)s3)nnn2-c2nonc2N)c1`, for which the IC50 was > 80 µM (inactive).
In the case of `COc1cc(-c2cc(OC)c(O)c(OC)c2)cc(OC)c1O`, the IC50 was > 80 µM (inactive).
With `N#Cc1c(C#N)c(SSc2c(C#N)c(C#N)c(N)n2-c2ccccc2)n(-c2ccccc2)c1N`, the IC50 was > 80 µM (inactive).
`O=C(Nc1nnc(S(=O)(=O)N2CCCCC2)s1)c1ccc(Cl)cc1`: the IC50 was > 80 µM (inactive).
The figure for `C=CCc1ccccc1OCC(=O)N/N=C/c1ccccc1OCC` is > 80 µM (inactive); for `COc1cccc(-c2c(C(=O)N/N=C/c3ccc(C)o3)nnn2-c2nonc2N)c1` it is > 80 µM (inactive).
Then `O=C(CNc1ccc2c(c1)OCO2)N/N=C\c1cn(Cc2ccccc2)c2ccccc12`, with > 80 µM (inactive).
The figure for `Cc1ccc(-c2nc(N)s[n+]2-c2ccccc2)cc1` is 60.3 µM; for `CC(=O)Nc1cc([N+](=O)[O-])ccc1OCc1ccccc1` it is > 80 µM (inactive).
As for `Cc1ccc(NC(=O)c2cc(N3C(=O)C=CC3=O)ccc2N2CCOCC2)cc1Cl`, the IC50 was > 80 µM (inactive).
Then `Clc1ccc2nc(-c3ccc4c(c3)OCO4)cn2c1`, with > 80 µM (inactive); and `O=C(Nc1ccccn1)c1sc2cc([N+](=O)[O-])ccc2c1Cl`, with > 80 µM (inactive).
Consider `Cc1ccc(S(=O)(=O)C=CS(=O)(=O)c2ccc(C)cc2)cc1`, for which the 50% inhibitory concentration (IC50) was 33.6 µM.
Then `CCOC(=O)c1sc(NC(=O)CSc2nnc(Cc3ccccc3)o2)c(C#N)c1C`, with > 80 µM (inactive).
Then `O=[N+]([O-])c1cnc(Sc2ccncn2)c([N+](=O)[O-])c1`, with 49.3 µM; and `O=S(=O)(NCc1csc(-c2ccccc2)n1)c1ccc(Cl)s1`, with > 80 µM (inactive).
As to `COc1cccc(/C=N/NC(=O)c2c(C)nc3ccc(Br)cn23)c1`, the IC50 was > 80 µM (inactive).
The figure for `Cc1ccc(NC(=O)Cn2sc3ccccc3c2=O)cc1` is 15 µM; for `CN(C)c1ccc2nc3ccc(=O)cc-3sc2c1` it is > 80 µM (inactive); for `O=C(Nc1nnc(S(=O)(=O)N2CCOCC2)s1)c1cccc(Br)c1` it is > 80 µM (inactive).
Consider `Cc1nnc(N/N=C/c2ccc(-c3ccccc3F)o2)n1N`, for which the IC50 is > 80 µM (inactive).
Then `CC(=O)OCCCNc1cc(Sc2nc3ccccc3s2)c2nonc2c1[N+](=O)[O-]`, with > 80 µM (inactive).
For `Cc1cccc(OCC(=O)NCC(=O)N/N=C/c2ccccc2)c1`, the IC50 is > 80 µM (inactive).
In the case of `COc1ccc(N2C(=O)/C(=C/c3cccs3)NC2=S)cc1`, the IC50 is > 80 µM (inactive).
The figure for `O=C(OCC(=O)c1ccc([N+](=O)[O-])cc1)/C(=C\c1ccc(Cl)cc1)NC(=O)c1ccccc1` is > 80 µM (inactive).
The figure for `CCOC(=O)CSc1nnc(NC(=O)c2cccc([N+](=O)[O-])c2)s1` is > 80 µM (inactive).
The figure for `C=CCN=c1scc(-c2ccco2)n1/N=C/c1ccc(O)c(O)c1O` is > 80 µM (inactive).
Regarding `Nc1ccc(S(=O)(=O)c2cc(O)c3ccccc3c2O)cc1`, the IC50 is > 80 µM (inactive).
Then `Cc1cc(C)c[n+](C2=C([O-])c3ccccc3C(=O)/C2=N\S(=O)(=O)c2cccs2)c1`, with > 80 µM (inactive); and `O=C(Nc1ccc(N2CCCC2)cc1)c1cccc(-c2cc3ccccc3oc2=O)c1`, with > 80 µM (inactive).
For the molecule `Cc1ccc(/C=C/C(=O)NCCc2cccc(Cl)c2)o1`, the IC50 was > 80 µM (inactive).
Then `CCOc1ccccc1NS(=O)(=O)c1c(C)noc1C`, with > 80 µM (inactive); and `Nc1c(O)cccc1C(=O)O`, with > 80 µM (inactive); and `CCN1CCN(C(=S)c2ccc(O)cc2)CC1`, with > 80 µM (inactive).
Then `COc1cc(C(=O)O/N=C2/C=C(C)C(=O)C=C2C)cc(OC)c1OC`, with > 80 µM (inactive); and `CC(=O)Nc1ccc(S(=O)(=O)/N=C2\C(=O)c3ccccc3C([O-])=C2n2cc[n+](-c3ccccn3)c2)cc1`, with > 80 µM (inactive).
Then `Cc1ccc(C(=O)Nc2nnc(S(=O)(=O)N3CCC(C)CC3)s2)cc1`, with > 80 µM (inactive); and `Cc1ccc(-c2c(C(=O)N/N=C/c3cccs3)nnn2-c2nonc2N)cc1`, with > 80 µM (inactive).
With `COc1ccc(S(=O)(=O)Nc2cc(SCC(=O)O)c(O)c3ccccc23)cc1`, the IC50 was > 80 µM (inactive).
Then `CC1N(C)c2cccc3cccc(c23)N1C`, with > 80 µM (inactive); and `CC1(C)Nc2ccc(O)cc2-c2c1ssc2=S`, with > 80 µM (inactive); and `C(=N\Nc1nc2ccccc2[nH]1)/c1ccccn1`, with > 80 µM (inactive).
The figure for `COC(=O)CCC(=O)OC1(C)C(=O)C2=CN(c3ccc(OC)cc3)C(c3ccc(OC)cc3)=CC2=C(Br)C1=O` (stereo not drawn) is > 80 µM (inactive); for `CCNc1nc(NC(C)C)nc(NS(=O)(=O)c2ccc(Cl)cc2)n1` it is > 80 µM (inactive); for `C=CCOc1ccc(CNc2ccc3[nH]c(=O)[nH]c3c2)cc1OC` it is > 80 µM (inactive).
Then `Clc1cccc(Cl)c1CNc1ccc(N2CCCC2)cc1`, with > 80 µM (inactive); and `Cc1cc(=O)[nH]c(N/N=C/c2c(C)nn(-c3ccccc3)c2Cl)n1`, with 19.9 µM.
Consider `COc1ccc(-n2c(=S)[nH]c3c(sc(=S)n3-c3ccccc3)c2=O)c(OC)c1`, for which the IC50 was 58 µM.
Then `COC(=O)CCC(=O)Nc1sc(Cc2ccccc2)c(C)c1C(N)=O`, with > 80 µM (inactive); and `c1ccc(OCc2nnc3n2N=C(c2ccccc2)CS3)cc1`, with > 80 µM (inactive).
Take `CCOc1ccc(NC(=O)Cn2sc3nc(C)cc(C)c3c2=O)cc1`: the IC50 was > 80 µM (inactive).
The figure for `[O-]/[N+](=C\c1ccncc1)c1ccccc1` is > 80 µM (inactive).
On to `CC(C)Cn1c([N+](=O)[O-])nc2c1c(=O)[nH]c(=O)n2C`, for which the IC50 was > 80 µM (inactive).
Regarding `COc1ccc(CCn2c(NN=C(C)C)nc3c2c(=O)[nH]c(=O)n3C)cc1`, the IC50 was > 80 µM (inactive).
The figure for `COc1ccc(CCn2c(NN)nc3c2c(=O)[nH]c(=O)n3C)cc1` is > 80 µM (inactive); for `C[c-]1[c-](C)[c-](C)[c-](C)[c-]1C.[Fe].c1cc2nccc(N3CCCC3)[c-]2c1` (stereo not drawn) it is > 80 µM (inactive).
The figure for `CCc1ccccc1N1CSC2=C(C#N)C(c3ccccc3F)CC(=O)N2C1` (stereo not drawn) is > 80 µM (inactive); for `C[C@H](CO)N1C[C@H](C)[C@@H](CN(C)C(=O)Nc2ccc(C(F)(F)F)cc2)Oc2c(cccc2N(C)C)C1=O` it is > 80 µM (inactive); for `CC(=O)Nc1ccc(S(=O)(=O)NNc2cccc(C)c2)cc1` it is > 80 µM (inactive).
In the case of `COc1cc(/C=N/Nc2nncn2N)ccc1OCc1c(C)no[n+]1[O-]`, the IC50 was > 80 µM (inactive).
The figure for `CN1CCN(C(=O)c2sc(=S)n(-c3ccccc3)c2N)CC1` is 54.6 µM.
Then `S=c1ncc2[nH]c(=S)[nH]c2[nH]1`, with 60.5 µM.
The figure for `C=CCN1C=C2C(=O)C(C)(OC(=O)CCC(=O)OC)C(=O)C(Br)=C2C=C1c1ccc(OC)cc1` (stereo not drawn) is > 80 µM (inactive).
With `CC1(OC(=O)C2CCCC2)C(=O)C=C2C=C(c3ccsc3)N(Cc3ccc4c(c3)OCO4)C=C2C1=O` (stereo not drawn), the IC50 is > 80 µM (inactive).
The figure for `c1cncc(CNc2ccc3c(c2)OCO3)c1` is > 80 µM (inactive).
Then `Cn1c(=O)c2[nH]c(-c3ccccc3)c(O)c2n(C)c1=O`, with > 80 µM (inactive); and `CCn1c2ccccc2c2cc(/C=N/n3cn[nH]c3=S)ccc21`, with > 80 µM (inactive).
The figure for `Cc1ccc(NC(=O)Cn2sc3nc(C)cc(C)c3c2=O)c(Cl)c1` is > 80 µM (inactive).
`Cc1ccsc1/C=N\NC(=O)CC(=O)NCc1ccccc1`: the IC50 is > 80 µM (inactive).
The figure for `O=C(CCC(=O)OCC(=O)c1ccc([N+](=O)[O-])cc1)Nc1ccccc1Cl` is 53 µM; for `COC(=O)c1ccccc1NC1=C/C(=N\S(=O)(=O)c2cccs2)c2ccccc2C1=O` it is > 80 µM (inactive); for `O=c1c2cc(F)ccc2sn1-c1ccccc1Cl` it is 13.8 µM.
`O=c1[nH]sc2cc(F)ccc12`: the IC50 was > 80 µM (inactive).

The record behind these values is PubChem BioAssay AID540252 (Sanford-Burnham Center for Chemical Genomics, 2011).
